Experimental data taken from US9751854B2 (Millennium Pharmaceuticals, Inc., priority 2014, dated 2017).

molecular target: human VPS34 (Homo sapiens (Human), UniProt Q8NEB9); test: Human VPS34 enzyme assay (Adapta TR-FRET ADP detection); format: biochemical; settings: IC50 range class
Sequence (Q8NEB9 whole entry): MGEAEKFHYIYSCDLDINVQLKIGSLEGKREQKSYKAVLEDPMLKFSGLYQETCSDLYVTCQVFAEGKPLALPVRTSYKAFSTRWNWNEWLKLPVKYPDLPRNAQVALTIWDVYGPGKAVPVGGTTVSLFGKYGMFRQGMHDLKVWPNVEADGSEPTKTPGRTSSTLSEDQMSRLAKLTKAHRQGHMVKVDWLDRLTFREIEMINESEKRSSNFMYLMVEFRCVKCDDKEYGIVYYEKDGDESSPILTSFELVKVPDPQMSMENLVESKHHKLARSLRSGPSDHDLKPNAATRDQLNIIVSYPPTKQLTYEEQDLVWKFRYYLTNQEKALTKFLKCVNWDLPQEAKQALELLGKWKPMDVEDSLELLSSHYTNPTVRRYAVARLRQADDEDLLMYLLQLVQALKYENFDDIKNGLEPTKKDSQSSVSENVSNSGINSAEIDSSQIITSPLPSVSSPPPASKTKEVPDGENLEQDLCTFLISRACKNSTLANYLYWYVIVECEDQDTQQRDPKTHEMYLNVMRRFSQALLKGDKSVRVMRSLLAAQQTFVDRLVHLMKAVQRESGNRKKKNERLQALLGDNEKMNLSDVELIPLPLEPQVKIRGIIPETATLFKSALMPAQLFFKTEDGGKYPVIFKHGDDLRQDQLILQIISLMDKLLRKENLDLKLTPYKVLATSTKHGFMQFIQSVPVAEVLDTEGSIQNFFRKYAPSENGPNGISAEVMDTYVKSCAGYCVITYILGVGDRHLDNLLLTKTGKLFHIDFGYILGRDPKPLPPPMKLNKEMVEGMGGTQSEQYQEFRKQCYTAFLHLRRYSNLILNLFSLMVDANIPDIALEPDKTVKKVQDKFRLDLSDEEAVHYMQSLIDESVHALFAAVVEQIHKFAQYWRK

| Compound | IC50 |
| --- | --- |
| Cc1ncc(-c2ccnc(Nc3ccnc(C(F)(F)F)n3)c2)cc1C(=O)N1CCC1 [Compound I-292, azetidin-1-yl(6-methyl-2′-[(2-(trifluoromethyl)pyrimidin-4-yl]amino}-3,4′-bipyridin-5-yl)methanone] | 10 to 50 nM |
| CCN(CC)C(=O)c1cc(-c2ccnc(Nc3ccnc(C)n3)c2)cnc1C [Compound I-302, N,N-diethyl-6-methyl-2′-[(2-methylpyrimidin-4-yl)amino]-3,4′-bipyridine-5-carboxamide] | 10 to 50 nM |
| CN(C(=O)c1cc(-c2ccnc(Nc3ccncn3)c2)cnc1N)C12CC(C1)C2 [Compound I-303, 6-amino-N-(bicyclo[1.1.1]pent-1-yl)-N-methyl-2′-(pyrimidin-4-ylamino)-3,4′-bipyridine-5-carboxamide] | 10 to 50 nM |
| Cc1ncc(-c2ccnc(NC(=O)C3CCC3)c2)cc1NS(=O)(=O)c1ccc(F)cc1F [Compound I-305, N-(5-{[(2,4-difluorophenyl)sulfonyl]amino}-6-methyl-3,4′-bipyridin-2′-yl)cyclobutanecarboxamide] | 10 to 50 nM |
| Cc1nccc(Nc2cc(-c3cnc(N(C)C)c(C(=O)N(C)C45CC(C4)C5)c3)ccn2)n1 [Compound I-306, N-(bicyclo[1.1.1]pent-1-yl)-6-(dimethylamino)-N-methyl-2′-((2-methylpyrimidin-4-yl)amino)-3,4′-bipyridine-5-carboxamide] | 10 to 50 nM |
| Cc1ncc(-c2ccnc(NC(=O)C3CC3)c2)cc1NS(=O)(=O)N(C)C [Compound I-311, N-{5-[(dimethylsulfamoyl)amino]-6-methyl-3,4′-bipyridin-2′-yl)cyclopropanecarboxamide] | < 10 nM |
| Cc1ncc(-c2ccnc(NC(=O)N3CCCC3)c2)cc1NS(=O)(=O)c1ccc(F)cc1F [Compound I-313, N-(5-{[(2,4-difluorophenyl)sulfonyl]amino}-6-methyl-3,4′-bipyridin-2′-yl)pyrrolidine-1-carboxamide] | 10 to 50 nM |
| Cc1nccc(Nc2cc(-c3cnc(Cl)c(N(C)C)c3C)ccn2)n1 [Compound I-314, 6-chloro-N5,N5,4-trimethyl-N2′-(2-methylpyrimidin-4-yl)-3,4′-bipyridine-2′,5-diamine] | 10 to 50 nM |
| Cc1nccc(Nc2cc(-c3cnc(C)c(C(=O)N4CCCC4)c3)ccn2)n1 [Compound I-315, {6-methyl-2′-[(2-methylpyrimidin-4-yl)amino]-3,4′-bipyridin-5-yl}(pyrrolidin-1-yl)methanone] | 10 to 50 nM |
| CC(=O)Nc1cc(-c2cncc(S(=O)(=O)NC3C4CC5CC(C4)CC3C5)c2)ccn1 (stereo not drawn) [Compound I-318, N-[5-(adamantan-2-ylsulfamoyl)-3,4′-bipyridin-2′-yl]acetamide] | 10 to 50 nM |
| CC(=O)Nc1cc(-c2cnc(C)c(N(CCO)S(=O)(=O)c3ccc(F)cc3F)c2)ccn1 [Compound I-319, N-(5-{[(2,4-difluorophenyl)sulfonyl](2-hydroxyethyl)amino}-6-methyl-3,4′-bipyridin-2′-yl]acetamide] | > 100 nM |
| CC(=O)Nc1cc(-c2cncc(N3CCCCS3(=O)=O)c2)ccn1 [Compound I-320, N-[5-(1,1-dioxido-1,2-thiazinan-2-yl)-3,4′-bipyridin-2′-yl]acetamide] | 10 to 50 nM |
| CC(=O)Nc1cc(-c2cncc(S(=O)(=O)NCc3ccccc3)c2)ccn1 [Compound I-321, N-[5-(benzylsulfamoyl)-3,4′-bipyridin-2′-yl]acetamide] | 50 to 100 nM |
| CC(=O)Nc1cc(-c2cnc(C)c(NS(=O)(=O)c3cccc(F)c3Cl)c2)ccn1 [Compound I-322, N-(5-{[(2-chloro-3-fluorophenyl)sulfonyl]amino}-6-methyl-3,4′-bipyridin-2′-yl)acetamide] | 10 to 50 nM |
| CC(=O)Nc1cc(-c2cnc(N)c(N3CCCN(C)S3(=O)=O)c2)ccn1 [Compound I-323, N-[6-amino-5-(6-methyl-1,1-dioxido-1,2,6-thiadiazinan-2-yl)-3,4′-bipyridin-2′-yl]acetamide] | 10 to 50 nM |
| Cc1ncc(-c2ccnc(NC(=O)OCC3(C)COC3)c2)cc1NS(=O)(=O)c1ccc(F)cc1F [Compound I-324, (3-methyloxetan-3-yl)methyl (5-{[(2,4-difluorophenyl)sulfonyl]amino}-6-methyl-3,4′-bipyridin-2′-yl)carbamate] | 10 to 50 nM |

Next, values leading:

| IC50 | Compound |
| --- | --- |
| 10 to 50 nM | CC(=O)Nc1cc(-c2cnc(Cl)c(NS(=O)(=O)c3ccc(F)cc3Cl)c2C)ccn1 [Compound I-290, N-(6-chloro-5-{[(2-chloro-4-fluorophenyl)sulfonyl]amino}-4-methyl-3,4′-bipyridin-2′-yl)acetamide] |
| < 10 nM | Cc1nccc(Nc2cc(-c3cnc(Cl)c(NS(=O)(=O)c4ccc(F)cc4F)c3C)c(F)cn2)n1 [Compound I-294, N-{6-chloro-5′-fluoro-4-methyl-2′-[(2-methylpyrimidin-4-yl)amino]-3,4′-bipyridin-5-yl}-2,4-difluorobenzenesulfonamide] |
| 50 to 100 nM | Cc1nccc(Nc2cc(-c3cnc(Cl)c(NC(=O)c4ccc(F)cc4F)c3C)ccn2)n1 [Compound I-295, N-{6-chloro-4-methyl-2′-[(2-methylpyrimidin-4-yl)amino]-3,4′-bipyridin-5-yl}-2,4-difluorobenzamide] |
| 10 to 50 nM | Cc1c(-c2ccnc(Nc3ccnc(C4CC4)n3)c2)cnc(Cl)c1NS(=O)(=O)c1ccc(F)cc1F [Compound I-296, N-{6-chloro-2′-[(2-cyclopropylpyrimidin-4-yl)amino]-4-methyl-3,4′-bipyridin-5-yl}-2,4-difluorobenzenesulfonamide] |
| 10 to 50 nM | Cc1ncc(-c2ccnc(Nc3ccccn3)c2)cc1NS(=O)(=O)c1ccc(F)cc1F [Compound I-297, 2,4-difluoro-N-[6-methyl-2′-(pyridin-2-ylamino)-3,4′-bipyridin-5-yl]benzenesulfonamide] |
| 10 to 50 nM | Cc1c(-c2ccnc(Nc3ncc(C#N)cn3)c2)cnc(Cl)c1NS(=O)(=O)c1ccc(F)cc1F [Compound I-300, N-{6-chloro-2′-[(5-cyanopyrimidin-2-yl)amino]-4-methyl-3,4′-bipyridin-5-yl}-2,4-difluorobenzenesulfonamide] |
| 10 to 50 nM | Cc1ncc(-c2ccnc(Nc3ccn(C)n3)c2)cc1NS(=O)(=O)c1ccc(F)cc1F [Compound I-301, 2,4-difluoro-N-{6-methyl-2′-[(1-methyl-1H-pyrazole-3-yl)amino]-3,4′-bipyridin-5-yl]benzenesulfonamide] |
| 10 to 50 nM | Cc1ccc(Nc2cc(-c3cnc(C)c(NS(=O)(=O)c4ccc(F)cc4F)c3)ccn2)nn1 [Compound I-307, 2,4-difluoro-N-{6-methyl-2′-[(6-methylpyridazin-3-yl)amino]-3,4′-bipyridin-5-yl}benzenesulfonamide] |
| < 10 nM | Cc1c(-c2ccnc(Nc3ccncn3)c2)cnc(Cl)c1NS(=O)(=O)c1ccccc1 [Compound I-309, N-[6-chloro-4-methyl-2′-(pyrimidin-4-ylamino)-3,4′-bipyridin-5-yl]benzenesulfonamide] |
| < 10 nM | Cc1ncc(-c2ccnc(Nc3cnccn3)c2)cc1NS(=O)(=O)c1ccc(F)cc1F [Compound I-310, 2,4-difluoro-N-[6-methyl-2′-(pyrazin-2-ylamino)-3,4′-bipyridin-5-yl]benzenesulfonamide] |
| 10 to 50 nM | CC(=O)Nc1cc(-c2cnc(Cl)c(NS(=O)(=O)c3ccccc3)c2C)ccn1 [Compound I-312, N-{6-chloro-4-methyl-5-[(phenylsulfonyl)amino]-3,4′-bipyridin-2′-yl}acetamide] |
